Assay results: patent publication US10323022B2, “Pyrrolidinyl urea, pyrrolidinyl thiourea and pyrrolidinyl guanidine compounds as TrkA kinase inhibitors” (Array BioPharma Inc., priority 2011, dated 2019)

target: TrkA (Homo sapiens (Human), UniProt P04629); test: TrkA Omnia Assay; format: biochemical; conditions: averaged IC50; 20 nM enzyme, 500 μM ATP, 10 μM peptide substrate
In short: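 Recombinant TrkA (20 nM) preincubated 10 min at ambient temperature with compound, then Omnia Tyr Peptide #4 (10 μM) and ATP (500 μM) added in 25 mM MOPS pH 7.5, 5 mM MgCl2, 0.005% Triton X-100. Fluorescence (ex 360/em 485 nm) followed continuously for 70 min; IC50 from initial rates by 4- or 5-parameter logistic fit.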

Chain of TrkA (P04629 33-796): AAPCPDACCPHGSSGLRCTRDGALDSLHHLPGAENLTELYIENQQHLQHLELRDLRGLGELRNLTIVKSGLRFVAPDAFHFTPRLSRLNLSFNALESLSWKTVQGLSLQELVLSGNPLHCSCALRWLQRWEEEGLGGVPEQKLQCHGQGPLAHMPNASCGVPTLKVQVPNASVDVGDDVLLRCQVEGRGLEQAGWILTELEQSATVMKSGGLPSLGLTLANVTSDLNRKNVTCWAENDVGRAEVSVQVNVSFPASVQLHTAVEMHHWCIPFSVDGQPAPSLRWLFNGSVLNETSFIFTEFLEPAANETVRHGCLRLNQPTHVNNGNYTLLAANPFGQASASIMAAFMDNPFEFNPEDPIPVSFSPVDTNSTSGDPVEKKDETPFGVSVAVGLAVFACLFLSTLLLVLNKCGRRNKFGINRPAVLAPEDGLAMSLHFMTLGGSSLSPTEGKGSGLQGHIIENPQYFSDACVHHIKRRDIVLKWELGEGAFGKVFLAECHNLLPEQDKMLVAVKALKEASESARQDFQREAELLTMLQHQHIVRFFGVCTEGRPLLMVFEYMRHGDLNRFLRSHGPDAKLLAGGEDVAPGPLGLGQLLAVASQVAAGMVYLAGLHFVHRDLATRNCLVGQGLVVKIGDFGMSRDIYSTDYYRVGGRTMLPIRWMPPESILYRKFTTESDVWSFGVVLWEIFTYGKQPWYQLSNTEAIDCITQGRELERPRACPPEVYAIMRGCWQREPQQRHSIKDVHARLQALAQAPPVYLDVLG

Structure (SMILES)	IC50
COCCN1C[C@@H](NC(=O)Nc2cc(-c3ccccn3)nn2C)[C@H](c2cc(F)cc(F)c2)C1 [Example 56, 1-((3S,4R)-4-(3,5-difluorophenyl)-1-(2-methoxyethyl)pyrrolidin-3-yl)-3-(1-methyl-3-(pyridin-2-yl)-1H-pyrazol-5-yl)urea]	< 100 nM
COCCN1C[C@@H](NC(=O)Nc2cc(-c3cccnc3)nn2C)[C@H](c2cc(F)cc(F)c2)C1 [Example 57, 1-((3S,4R)-4-(3,5-difluorophenyl)-1-(2-methoxyethyl)pyrrolidin-3-yl)-3-(1-methyl-3-(pyridin-3-yl)-1H-pyrazol-5-yl)urea]	< 100 nM
COCCN1C[C@@H](NC(=O)Nc2cc(-c3cnn(C)c3)nn2C)[C@H](c2ccc(F)c(F)c2)C1 [Example 58, 1-((3S,4R)-4-(3,4-difluorophenyl)-1-(2-methoxyethyl)pyrrolidin-3-yl)-3-(1,1′-dimethyl-1H,1′H-3,4′-bipyrazol-5-yl)urea]	< 100 nM
COCCN1C[C@@H](NC(=O)Nc2cc(-c3cccc(C#N)c3)nn2C)[C@H](c2ccc(F)c(F)c2)C1 [Example 59, 1-(3-(3-cyanophenyl)-1-methyl-1H-pyrazol-5-yl)-3-((3S,4R)-4-(3,4-difluorophenyl)-1-(2-methoxyethyl)pyrrolidin-3-yl)urea]	< 100 nM
COCCN1C[C@@H](NC(=O)Nc2cc(-c3ccc(C#N)cc3)nn2C)[C@H](c2ccc(F)c(F)c2)C1 [Example 60, 1-(3-(4-cyanophenyl)-1-methyl-1H-pyrazol-5-yl)-3-((3S,4R)-4-(3,4-difluorophenyl)-1-(2-methoxyethyl)pyrrolidin-3-yl)urea]	< 100 nM
COCCN1C[C@@H](NC(=O)Nc2cc(-c3cccc4nccn34)nn2C)[C@H](c2ccc(F)c(F)c2)C1 [Example 61, 1-((3S,4R)-4-(3,4-difluorophenyl)-1-(2-methoxyethyl)pyrrolidin-3-yl)-3-(3-(imidazo[1,2-a]pyridin-5-yl)-1-methyl-1H-pyrazol-5-yl)urea]	< 100 nM
COCCN1C[C@@H](NC(=O)Nc2c(Cl)c(-c3ccccc3)nn2-c2ccccc2)[C@H](c2ccc(F)c(F)c2)C1 [Example 62, 1-(4-chloro-1,3-diphenyl-1H-pyrazol-5-yl)-3-((3S,4R)-4-(3,4-difluorophenyl)-1-(2-methoxyethyl)pyrrolidin-3-yl)urea]	< 100 nM
COCCN1C[C@@H](NC(=O)Nc2c(Br)c(-c3ccccc3)nn2-c2ccccc2)[C@H](c2ccc(F)c(F)c2)C1 [Example 63, 1-(4-bromo-1,3-diphenyl-1H-pyrazol-5-yl)-3-((3S,4R)-4-(3,4-difluorophenyl)-1-(2-methoxyethyl)pyrrolidin-3-yl)urea]	< 100 nM
COCCN1C[C@@H](NC(=O)Nc2c(Cl)c(C)nn2-c2ccccc2)[C@H](c2ccc(F)c(F)c2)C1 [Example 64, 1-(4-chloro-3-methyl-1-phenyl-1H-pyrazol-5-yl)-3-((3S,4R)-4-(3,4-difluorophenyl)-1-(2-methoxyethyl)pyrrolidin-3-yl)urea]	< 100 nM
COCCN1C[C@@H](NC(=O)Nc2c(-c3ccccc3)c(C)nn2C)[C@H](c2ccc(F)c(F)c2)C1 [Example 65, 1-((3S,4R)-4-(3,4-difluorophenyl)-1-(2-methoxyethyl)pyrrolidin-3-yl)-3-(1,3-dimethyl-4-phenyl-1H-pyrazol-5-yl) urea]	< 100 nM
COCCN1C[C@@H](NC(=O)Nc2c(C#N)c(C)nn2-c2ccccc2)[C@H](c2ccc(F)c(F)c2)C1 [Example 66, 1-(4-cyano-3-methyl-1-phenyl-1H-pyrazol-5-yl)-3-((3S,4R)-4-(3,4-difluorophenyl)-1-(2-methoxyethyl)pyrrolidin-3-yl)urea]	< 100 nM
COCCN1C[C@@H](NC(=O)Nc2c(Cl)c(-c3ccccc3)nn2C)[C@H](c2ccc(F)c(F)c2)C1 [Example 67, 1-(4-chloro-1-methyl-3-phenyl-1H-pyrazol-5-yl)-3-((3S,4R)-4-(3,4-difluorophenyl)-1-(2-methoxyethyl)pyrrolidin-3-yl)urea]	100 to 1000 nM
